Experimental data: PMC6986439, “Sultiame pharmacokinetic profile in plasma and erythrocytes after single oral doses: A pilot study in healthy volunteers” (Pharmacology Research & Perspectives, 2020)

Key:
erythrocytes = assay: In vitro competition studies with zonisamide and topiramate in whole blood; format: in vitro ADME, human; settings: not influenced by the addition of sultiame; data not shown
Experimental: In addition, competition studies were performed with two other antiepileptic agents known for their affinity for CA (zonisamide and topiramate), added at equimolar concentration to 20 mg/L of sultiame. Similar ranges of inhibition constants for CA II were reported in the literature for these three substances.13 Samples (1 mL) were drawn before and at 2, 4, 6, 8, 10, 15, 20, 30, 45, 60, and 120 min after addition of the competitor. Sultiame, zonisamide, and topiramate concentrations were then analyzed. All samples were centrifuged at 18 620 g for 1 minutes at 4°C. Plasma, erythrocyte, and urine fractions were stored separately at − 80°C prior to analysis for a maximum of 9 months. For analysis, plasma and hemolyzed erythrocytes samples were subjected to protein precipitation with MeOH containing the internal‐standard sultiame D4 and quantified with the previously described HPLC‐MS/MS method, using matrix‐matched calibration and quality controls. The sultiame concentrations determined in erythrocytes were corrected for the 10% interstitial plasma remnant in the erythrocyte fraction after centrifugation.14

[1] = parameters: method as in earlier work; settings: main metabolite identified in urines ref 8; cited from earlier work

Row | Molecule | erythrocyte/plasma ratio (erythrocytes) | activity of metabolite [1]
1 | CC1(C)O[C@@H]2[C@@H](CO[C@@]3(COS(N)(=O)=O)OC(C)(C)O[C@@H]23)O1 [topiramate] | ~1 | 
2 | hydroxy‐sultiame |  | inactive
